# Patent US8748497B2, “Optimized fluorocarbon emulsions for blood substitutes and other therapeutic uses” (Alliance Pharmaceutical Corp., priority 2006, dated 2014)
# Read-outs that look alike come from different tables or passages of the source.
# How the values were obtained:
# [1] = pharmacokinetics in blood after single intravenous administration of the emulsion of Ex. VI; format: in vivo, Sprague Dawley rats; conditions: for MRT last / half-life: Sprague-Dawley, rat; for MRT last: read-out: MRT(0-last); for Vd: terminal phase; for half-life: iv, read-out: T1/2 (converted)
# Excerpt: (§1) This study was designed to assess the pharmokinetics and tissue distribution of PFOB and PFDB following a single intravenous administration of the emulsion of Ex. VI at various time intervals at dose levels of 1.8 and 3.6 g PFC/k in male and female Sprague Daley rats, aged 7-9 weeks, weight between 190-267 grams. For pharmacokinetics, 160 rats were divided into 20 groups (N=4 rats/sex/dose/time interval) and for tissue distribution, 156 rats were divided into 26 groups (n=3 rats/sex/dose/time interval). The time intervals for pharmacokinetics blood sampling were 0.083, 0.5, 1, 3, 6, 12, 36, 48, 72 and 96 hours. The time intervals for tissue sampling was predose, 24 hours, 1, 2, 4, 8, 13, 17, 21, 26, 39, 52 and 72 weeks.
# Six pharmacokinetic parameters were determined following a single intravenous dose of 1.8 gPFC/kg or 3.6 g PFC/kg in both the male and female rats as shown in the tables below.
# [2] = tissue distribution after single intravenous administration of the emulsion of Ex. VI, GC headspace; format: in vivo, Sprague Dawley rats
# Excerpt: as §1
# 26 groups (N=3 rats/sex/group). Prior to euthanasia, body weights were recorded. At designated times (see below), rats were anesthetized with METOFANE® and esanguinated via the abdominal artery. Blood was collected into syringes containing EDTA and transferred into sealed plastic containers for storage at approximately −20° C. until analyzed. Resultant data were included in the determination of pharmacokinetic parameters. The following tissues were collected from each rat and placed in sealed containers and stored frozen at −20° C. Prior to freezing, blood and tissue samples were processed for analysis. PFOB and PFDB were quantified in blood and tissues using a GC headspace method validated by Oread. The method was validated in the liver and then cross validated to all other tissues, blood, and serum. The tissues collected and analyzed include heart, lungs, abdominal fat, spleen, liver, mesenteric lymph nodes, kidneys, adrenals, testes, ovaries, uterus, whole brain, eyes, skeletal muscle, femoral bone marrow, and gastrointestinal tract.
# The concentration of PFOB and PFDB was determined in the tissues in both sexes at 12 time points. For the males, this was a total of 360 individual results including blood. There were 24 additional results for the female.
# [3] = Phase 1 pharmacokinetics in healthy human volunteers; format: in vivo; conditions: for AUC(0-t) / half-life / Cmax: human, blood; for AUC(0-t) / half-life: intravenous; for AUC(0-t): read-out: AUC (0-336); for half-life: read-out: t1/2. 12 h (initial elimination half-life within the first 12 h post dose) (converted); for Cmax: iv, healthy volunteers
# Protocol: Two randomised, controlled, double-blind, parallel group, Phase 1 studies were conducted in healthy human patients with the fluorocarbon emulsion made according to Example VI. Blood and expired air samples were analysed for PFOB and PFDB after a single intravenous dose of 1.2 or 1.8 g PFC/kg of the fluorocarbon emulsion of Example VI in healthy human volunteers to determine pharmacokinetics. Blood samples were collected up to 336 hours post-dosing.
# [4] = pharmacokinetics in subjects undergoing noncardiac surgical procedures; format: in vivo, human; conditions: human, whole blood, noncardiac surgery; for clearance: read-out: CL (whole blood clearance) (converted); for Cmax: read-out: Cmax (maximum whole blood concentration); for half-life: read-out: T1/2 (elimination half-life) (converted)
# Protocol: The pharmacokinetics of PFOB and PFDB were determined after the administration of the fluorocarbon emulsion of Example VI to subjects undergoing total hip replacement or spinal surgery or a variety of urologic and gynaecologic procedures including radical retropubic prostatectomy, radical hysterectomy, cystectomy and combined procedures. Human subjects in one study received either 0.9 g PFC/kg or 1.8 g PFC/kg of the fluorocarbon formulation of Example VI and those in a second study received 1.8 g PFC/kg of the fluorocarbon formulation of Example VI.
# [5] = pharmacokinetics in subjects undergoing CABG surgery with hypothermic CPB; format: in vivo, human; conditions: human, whole blood, other: directly into the bypass oxygenator, 2.7 g PFC/kg
# Protocol: The pharmacokinetics of PFOB and PFDB were determined after the administration of the fluorocarbon formulation taught in Example VI to human subjects undergoing coronary artery bypass grafting or CABG surgery with hypothermic cardiopulmonary bypass. In group 1 and in group 2, human subjects received the fluorocarbon emulsion (2.7 g PFC/kg) as taught in Example VI directly into the bypass oxygenator after being put on bypass but before cooling was begun. In group 4, subjects received 2.7 g PFC/kg of the fluorocarbon emulsion of Example VI directly into the bypass oxygenator either prior to aortic cannulation or after being put on bypass, but before cooling was begun.
# [6] = in vivo; cited from earlier work
# [7] = female rats, 1.8 g PFC/kg single iv, blood
# [8] = female rats, 3.6 g PFC/kg single iv, blood
# [9] = male rats, 1.8 g PFC/kg single iv, blood
# [10] = male rats, 3.6 g PFC/kg single iv, blood
# [11] = female rats, 1.8 g PFC/kg, 24 hours
# [12] = female rats, 3.6 g PFC/kg, 24 hours
# [13] = male rats, 1.8 g PFC/kg, 24 hours
# [14] = 1.2 g PFC/kg, Table VII, 1.2 g PFC/kg
# [15] = 1.2 g PFC/kg, Table VIII, 1.2 g PFC/kg
# [16] = 1.8 g PFC/kg, Table VII, 1.8 g PFC/kg
# [17] = 1.8 g PFC/kg, Table VIII, 1.8 g PFC/kg
structure (smiles),measurement,setting,value
"FC(F)(F)C(F)(F)C(F)(F)C(F)(F)C(F)(F)C(F)(F)C(F)(F)C(F)(F)C(F)(F)C(F)(F)Br [PFDB, perfluorodecyl bromide]",MRT last,"[1]; 1.8 g/kg, female rats, 1.8 g PFC/kg single iv, blood",4.72 days
same,MRT last,"[1]; 1.8 g/kg, male rats, 1.8 g PFC/kg single iv, blood",13.8 days
same,MRT last,"[1]; 3.6 g/kg, female rats, 3.6 g PFC/kg single iv, blood",18.3 days
same,MRT last,"[1]; 3.6 g/kg, male rats, 3.6 g PFC/kg single iv, blood",20.2 days
same,AUC(o-last),[1]; [7],6.86 mg·h/g
same,AUC(o-∞),[1]; [7],7.54 mg·h/g
same,Cl,[1]; [7],238.76 g/h/kg
same,T1/2,"[1]; female rats, 1.8 g PFC/kg single iv, blood, last 3 or 4 data points",199.851 days
same,Vd,"[1]; female rats, 1.8 g PFC/kg single iv",1652163 g/kg
same,AUC(o-last),[1]; [8],21.99 mg·h/g
same,AUC(o-∞),[1]; [8],22.87 mg·h/g
same,Cl,[1]; [8],157.39 g/h/kg
same,Vd,"[1]; female rats, 3.6 g PFC/kg single iv",1728719 g/kg
same,half-life,"[1]; female, blood, 1.8 g/kg, female rats, 1.8 g PFC/kg single iv, blood, last 3 or 4 data points",~200 days
same,half-life,"[1]; female, blood, 3.6 g/kg, female rats, 3.6 g PFC/kg single iv, blood, last 3 or 4 data points",~317 days
same,AUC(o-last),[1]; [9],6.88 mg·h/g
same,AUC(o-∞),[1]; [9],10.65 mg·h/g
same,Cl,[1]; [9],169.05 g/h/kg
same,Vd,"[1]; male rats, 1.8 g PFC/kg single iv",6128576 g/kg
same,AUC(o-last),[1]; [10],24.67 mg·h/g
same,AUC(o-∞),[1]; [10],27.62 mg·h/g
same,Cl,[1]; [10],130.34 g/h/kg
same,Vd,"[1]; male rats, 3.6 g PFC/kg single iv",2359442 g/kg
same,half-life,"[1]; male, blood, 1.8 g/kg, male rats, 1.8 g PFC/kg single iv, blood, last 3 or 4 data points",~1050 days
same,half-life,"[1]; male, blood, 3.6 g/kg, male rats, 3.6 g PFC/kg single iv, blood, last 3 or 4 data points",~523 days
same,concentration in the spleen and liver,"[2]; 24 hours, males 1.8 g PFC/kg",above 1 mg/g
same,concentration at 24 h,"[2]; Sprague-Dawley, rat, intravenous, 24 hr, all tissues, both sexes and both doses, read-out: absolute concentration in tissues",> 1000 ng/g
same,percent of dose in liver,[2]; [11],~86%
same,percent of dose in spleen,[2]; [11],approximately 14%
same,percent of dose in liver,[2]; [12],approximately 62%
same,percent of dose in spleen,[2]; [12],approximately 8%
same,"concentration in the lymph nodes, spleen, liver and bone marrow",[2]; females 3.6 g PFC/kg,above 1 mg/g
same,percent of dose in liver,[2]; [13],~85%
same,percent of dose in spleen,[2]; [13],approximately 15%
same,percent of dose in spleen,"[2]; male rats, 3.6 g PFC/kg",approximately 11%
same,percent of dose in liver,"[2]; male rats, 3.6 g PFC/kg, 24 hours",~69%
same,"concentration in the spleen, liver, and bone marrow",[2]; males 3.6 PFC/kg,above 1 mg/g
same,t1/2. 12 h (initial elimination half-life within the first 12 h post dose),"[3]; Table VIII, 1.2 g PFC/kg",13.6 h
same,AUC(0-t),[3]; [14],6640 µg·h/mL
same,half-life,[3]; [14],822 ± 216 min
same,AUC(0-t),[3]; [15],4630 µg·h/mL
same,half-life,[3]; [15],441 min
same,AUC(0-t),[3]; [16],16300 µg·h/mL
same,half-life,[3]; [16],1120 min
same,AUC(0-t),[3]; [17],11200 µg·h/mL
same,half-life,[3]; [17],756 min
same,Cmax,"[3]; 1.2 g PFC/kg, Table VII, 1.2 g PFC/kg single iv",540 ± 125 µg/mL
same,Cmax,"[3]; 1.2 g PFC/kg, Table VIII, 1.2 g PFC/kg single iv",670 ± 420 µg/mL
same,Cmax,"[3]; 1.8 g PFC/kg, Table VII, 1.8 g PFC/kg single iv",978 ± 499 µg/mL
same,Cmax,"[3]; 1.8 g PFC/kg, Table VIII, 1.8 g PFC/kg single iv",884 ± 196 µg/mL
same,AUC(0-inf),[4]; 0.9 g PFC/kg,736 ± 483 µg·h/mL
same,clearance,[4]; 0.9 g PFC/kg,0.973 mL/min/kg
same,Cmax,[4]; 0.9 g PFC/kg,284 ± 92.7 µg/mL
same,half-life,[4]; 0.9 g PFC/kg,164 ± 79.2 min
same,AUC(0-inf),[4]; 1.8 g PFC/kg,2950 µg·h/mL
same,clearance,[4]; 1.8 g PFC/kg,0.595 mL/min/kg
same,Cmax,[4]; 1.8 g PFC/kg,620 ± 158 µg/mL
same,half-life,[4]; 1.8 g PFC/kg,334 ± 289 min
same,AUC(0-inf),[5],16200 µg·h/mL
same,clearance,[5]; read-out: CL (whole blood clearance) (converted),0.113 mL/min/kg
same,Cmax,[5]; read-out: Cmax (maximum whole blood concentration),1030 µg/mL
same,half-life,[5]; read-out: T1/2 (elimination half-life) (converted),648 ± 268 min
same,half-life in the RES,[6],23 days
